Test results taken from patent publication US11542262B2, “Phosphatidylinositol 3-kinase inhibitors” (NANJING ZHENGXIANG PHARMACEUTICALS CO., LTD., priority 2019, dated 2023).
Like-named read-outs stand apart in the source and are kept apart here.

Assays:
PI3Kγ = PI3Kγ (Homo sapiens, UniProt P48736); test: ADP-Glo luminescent assay, enzymatic activity of PI3K gamma; format: biochemical; conditions: ATP 25 μM; read-out: PI3K gamma (nM) inhibitory activity (IC50)
PI3Kβ = PI3Kβ (Homo sapiens, UniProt P42338); test: ADP-Glo luminescent assay, enzymatic activity of PI3K beta; format: biochemical; conditions: ATP 25 μM; read-out: PI3K beta (nM) inhibitory activity (IC50)
Sequence of PI3Kβ (P42338 whole entry, species assumed, canonical isoform): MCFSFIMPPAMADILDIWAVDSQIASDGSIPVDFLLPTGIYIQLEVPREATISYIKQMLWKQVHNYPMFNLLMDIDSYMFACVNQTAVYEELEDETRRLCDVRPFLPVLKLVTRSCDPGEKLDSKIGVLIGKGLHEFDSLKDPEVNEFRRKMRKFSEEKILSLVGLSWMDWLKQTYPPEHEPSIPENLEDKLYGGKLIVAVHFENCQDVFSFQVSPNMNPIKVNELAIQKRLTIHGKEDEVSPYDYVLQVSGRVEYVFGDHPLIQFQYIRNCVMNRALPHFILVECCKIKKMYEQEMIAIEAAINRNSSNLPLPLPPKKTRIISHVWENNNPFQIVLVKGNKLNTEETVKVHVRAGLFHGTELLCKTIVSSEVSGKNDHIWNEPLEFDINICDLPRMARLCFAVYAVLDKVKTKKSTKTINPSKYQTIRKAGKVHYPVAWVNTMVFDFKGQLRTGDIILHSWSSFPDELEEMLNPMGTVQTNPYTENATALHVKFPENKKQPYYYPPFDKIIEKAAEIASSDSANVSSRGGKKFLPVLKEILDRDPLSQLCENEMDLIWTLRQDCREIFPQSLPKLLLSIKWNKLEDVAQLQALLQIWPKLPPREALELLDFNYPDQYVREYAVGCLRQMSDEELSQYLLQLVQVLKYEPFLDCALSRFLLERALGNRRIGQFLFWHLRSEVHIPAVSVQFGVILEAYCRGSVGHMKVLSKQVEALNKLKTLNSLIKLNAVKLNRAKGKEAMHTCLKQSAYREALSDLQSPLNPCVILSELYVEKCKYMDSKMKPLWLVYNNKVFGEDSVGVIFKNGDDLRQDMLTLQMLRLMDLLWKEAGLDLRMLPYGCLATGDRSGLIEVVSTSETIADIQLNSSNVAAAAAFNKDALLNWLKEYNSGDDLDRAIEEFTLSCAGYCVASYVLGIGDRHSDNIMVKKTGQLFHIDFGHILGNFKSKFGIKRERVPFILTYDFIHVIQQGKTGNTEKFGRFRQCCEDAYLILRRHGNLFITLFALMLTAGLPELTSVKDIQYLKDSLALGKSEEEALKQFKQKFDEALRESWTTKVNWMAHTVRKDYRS
Sequence of PI3Kβ (P27986 whole entry partner, species assumed, canonical isoform): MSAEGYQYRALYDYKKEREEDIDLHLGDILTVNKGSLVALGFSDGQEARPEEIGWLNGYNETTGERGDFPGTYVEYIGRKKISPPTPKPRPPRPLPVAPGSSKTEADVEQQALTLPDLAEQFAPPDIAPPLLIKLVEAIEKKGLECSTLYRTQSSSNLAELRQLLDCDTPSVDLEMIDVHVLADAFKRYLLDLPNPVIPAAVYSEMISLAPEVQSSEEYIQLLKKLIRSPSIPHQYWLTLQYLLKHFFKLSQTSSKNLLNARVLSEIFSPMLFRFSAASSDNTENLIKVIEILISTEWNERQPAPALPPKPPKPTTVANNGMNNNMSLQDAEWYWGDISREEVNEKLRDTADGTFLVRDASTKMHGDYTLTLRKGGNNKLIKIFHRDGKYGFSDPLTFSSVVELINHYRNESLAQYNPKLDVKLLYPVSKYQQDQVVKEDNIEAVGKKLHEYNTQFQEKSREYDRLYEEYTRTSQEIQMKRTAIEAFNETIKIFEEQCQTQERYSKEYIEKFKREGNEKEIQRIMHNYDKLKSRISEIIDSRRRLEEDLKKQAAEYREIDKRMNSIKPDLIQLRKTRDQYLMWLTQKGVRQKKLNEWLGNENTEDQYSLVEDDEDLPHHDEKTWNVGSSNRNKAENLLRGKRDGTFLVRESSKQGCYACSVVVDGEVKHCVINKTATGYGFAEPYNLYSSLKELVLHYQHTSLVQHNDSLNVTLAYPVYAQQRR
Method: Enzymatic activity of PI3K isoforms: Enzymatic activity of the class I PI3K isoforms in the presence of the compounds of Table 1 was measured using ADP-Glo luminescent assay against PI3Kα, PI3Kβ, PI3Kδ and PI3Kγ with ATP concentration at 25 μM. IPI-549 was used as the reference compound. The compounds would be tested from 1 or 10 μM, 3-fold dilution for 10 doses, in duplicate.
Compound preparation: Dilute a compound to 100× of the final desired highest inhibitor concentration in reaction by 100% DMSO. Transfer 100 μl of this compound dilution to a well in a 96-well plate and serially dilute it with DMSO for a total of 10 concentrations.
Kinase reaction: Prepare a solution of PI3K in 1× kinase buffer at 2-fold the final concentration of each reagent in the assay. Control wells contain 1× kinase buffer without enzyme. Prepare substrate solution of PIP2 substrate and ATP in 1× kinase reaction buffer at 2-fold of the final concentration. Add concentration substrate solution to each well to the final concentration. Cover the assay plate, shake to mix, and incubate at room temperature for 1 hour. Add 5 μl of ADP-Glo reagent to each well to stop the reaction. Mix briefly with a quick spin, shake slowly on the shaker for 120 min. Add 10 ul Kinase Detection Reagent to each well, shake 1 min, equilibrate for 30 min before reading on a luminescence plate reader.
Data Analysis: Convert RLU values to percent inhibition values as Percent inhibition=(max−sample RLU)/(max−min)*100. “min”—no enzyme control; “max”—DMSO control. Fit the data in XLFit excel add-in version 5.4.0.8 to obtain IC50 values. Y=Bottom+(Top−Bottom)/(1+(IC50/X)^HillSlope).

Pharmacokinetics in dogs = format: in vivo; conditions: IV bolus at 1 mg/kg and PO at 5 mg/kg; for bioavailability / clearance / half-life: male, dog, plasma; for bioavailability: beagle, oral, 5 mg/kg, read-out: F (%) oral bioavailability
Method: Dosing solutions were prepared at 1 mg/mL in 5% DMSO/40% PEG400/55% water. A dosing solution was administered to male beagle dogs (Approximately 9-14 kg, 3 dogs each group) via intravenous (IV) bolus at 1 mg/kg and by oral gavage (PO) at 5 mg/kg. The dosing volume was 1 mL/kg for IV administration and 5 mL/kg for oral gavage. Blood samples (˜0.3 mL each time point) were collected into tubes containing potassium ethylenediaminetetraacetic acid (K2EDTA) as the anticoagulant at 0.033, 0.083, 0.25, 0.5, 1, 2, 4, 8 and 24 hours post dose for IV administration and 0.083, 0.25, 0.5, 1, 2, 4, 8 and 24 hours post dose for PO administration. The blood samples were then centrifuged for 5 minutes in a centrifuge refrigerated at 4° C. The resultant plasma samples were analyzed using LC/MS/MS to determine concentrations of a test compound. Non-compartmental model with WinNonlin (Phoenix™, version 6.1) software was used to calculate pharmacokinetic (PK) parameters.

[1] = Pharmacokinetics in mice (plasma and brain concentrations); format: in vivo, CD-1 mice; conditions: male CD1 mouse, oral gavage 20 mg/kg
Method: The dosing solution was administered to male CD-1 mice via oral gavage (PO) at 20 mg/kg. Blood and brain tissue samples were collected at 0.5, 2 and 8 hours post-dose. The blood samples were then centrifuged for 5 minutes in a centrifuge refrigerated at 4° C. The brain samples after blood removal were homogenized in water.

4T1 cells = test: Anti-tumor efficacy in 4T1 syngeneic mouse tumor model; format: in vivo; conditions: 4T1 in BALB/c mice, oral gavage 100 mg/kg, FIG. 1
Method: BALB/c mice were inoculated subcutaneously at the fourth mammary pad with 4T1 cells for tumor development. On the next day after tumor cell inoculation, the mice were assigned into 2 groups using stratified randomization with 10 mice in each group based upon their body weight and inoculation order. […] The tumor sizes were measured three times per week during the treatment. Tumor volume was calculated by the formula: length×width^2/2.

MOG35-55 induced EAE = test: Efficacy on MOG35-55 induced EAE; format: in vivo, C57BL/6 mice; conditions: 20 mg/kg and 80 mg/kg BID PO, 14 days from day 10, FIG. 2

Sequence of PI3Kγ (P48736 whole entry, species assumed): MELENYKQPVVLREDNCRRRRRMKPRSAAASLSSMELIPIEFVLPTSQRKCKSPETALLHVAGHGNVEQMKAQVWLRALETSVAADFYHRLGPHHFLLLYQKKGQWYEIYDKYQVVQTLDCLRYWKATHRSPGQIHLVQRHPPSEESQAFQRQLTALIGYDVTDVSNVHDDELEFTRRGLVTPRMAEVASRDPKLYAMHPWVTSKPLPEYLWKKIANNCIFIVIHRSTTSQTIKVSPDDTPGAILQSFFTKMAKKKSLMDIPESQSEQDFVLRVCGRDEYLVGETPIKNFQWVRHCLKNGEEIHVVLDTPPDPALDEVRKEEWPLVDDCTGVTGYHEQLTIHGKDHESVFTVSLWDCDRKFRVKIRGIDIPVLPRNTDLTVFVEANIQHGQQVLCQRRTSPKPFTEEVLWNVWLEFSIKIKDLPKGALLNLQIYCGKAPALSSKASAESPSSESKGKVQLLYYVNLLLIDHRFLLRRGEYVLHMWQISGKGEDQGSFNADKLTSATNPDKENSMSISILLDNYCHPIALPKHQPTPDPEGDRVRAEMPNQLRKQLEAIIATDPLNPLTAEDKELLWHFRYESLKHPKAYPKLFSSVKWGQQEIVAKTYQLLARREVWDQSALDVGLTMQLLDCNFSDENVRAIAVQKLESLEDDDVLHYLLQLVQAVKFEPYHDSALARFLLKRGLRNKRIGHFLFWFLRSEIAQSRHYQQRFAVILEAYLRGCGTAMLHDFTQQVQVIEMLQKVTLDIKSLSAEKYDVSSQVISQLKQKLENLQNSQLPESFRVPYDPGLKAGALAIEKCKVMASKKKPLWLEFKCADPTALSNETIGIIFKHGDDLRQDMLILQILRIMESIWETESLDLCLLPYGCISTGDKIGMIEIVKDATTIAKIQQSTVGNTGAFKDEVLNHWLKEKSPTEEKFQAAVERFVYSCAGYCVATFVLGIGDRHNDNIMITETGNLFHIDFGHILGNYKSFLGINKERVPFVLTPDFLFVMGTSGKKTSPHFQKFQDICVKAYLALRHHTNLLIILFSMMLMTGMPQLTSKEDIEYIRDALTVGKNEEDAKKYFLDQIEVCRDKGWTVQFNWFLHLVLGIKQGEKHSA

Row | SMILES | IC50 (PI3Kγ) [nM] | IC50 (PI3Kβ) [nM] | F (%) oral bioavailability (Pharmacokinetics in dogs; beagle dogs) [%] | Vssobs (Pharmacokinetics in dogs; beagle dogs) [L/kg] | bioavailability (Pharmacokinetics in dogs) [%] | clearance (Pharmacokinetics in dogs; beagle dogs) [mL/min/kg] | half-life (Pharmacokinetics in dogs; beagle dogs) [h] | concentration at 0.5 h ([1]; CD-1, brain, read-out: Brain) [ng/g] | concentration at 2 h ([1]; CD-1, brain, read-out: Brain) [ng/g] | concentration at 8 h ([1]; CD-1, brain, read-out: Brain) [ng/g] | concentration at 0.5 h ([1]; CD-1, plasma, read-out: Plasma) [ng/mL] | concentration at 2 h ([1]; CD-1, plasma, read-out: Plasma) [ng/mL] | concentration at 8 h ([1]; CD-1, plasma, read-out: Plasma) [ng/mL] | tumor growth (tumor volume) (4T1 cells) | clinical disability symptom (EAE clinical score) (MOG35-55 induced EAE)
1 | CC(=O)Nc1nc(C)c(-c2cc3c(c(NS(C)(=O)=O)n2)C(=O)N([C@@H](C)C2CC2)C3)s1 [Compound 20, (S)-N-(5-(2-(1-cyclopropylethyl)-4-(methylsulfonamido)-3-oxo-2,3-dihydro-1H-pyrrolo[3,4-c]pyridin-6-yl)-4-methylthiazol-2-yl)acetamide] | 1.3 | > 10000 | 108 | 2.1 | 107 | 6.1 | 7.2 | – | – | – | – | – | – | – | –
2 | CC(=O)Nc1nc(C)c(-c2cc3c(c(N4CCOCC4)n2)C(=O)N([C@@H](C)C2CC2)C3)s1 [Compound 34, (S)-N-(5-(2-(1-cyclopropylethyl)-4-morpholino-3-oxo-2,3-dihydro-M-pyrrolo[3,4-c]pyridin-6-yl)-4-methylthiazol-2-yl)acetamide] | – | > 10000 | – | 2.7 | > 68 | 4.5 | 9.1 | 2490 | 473 | 454 | 2800 | 1200 | 1370 | significantly suppressed tumor growth | significantly ameliorated the clinical disability symptom
